Laboratory results taken from US6124327A, “HIV integrase inhibitors” (Merck & Co., Inc., priority 1998, dated 2000).

How the values were obtained:
HIV-1 integrase = molecular target: T1, HIV-1 integrase (Human immunodeficiency virus type 1 group M subtype B, UniProt P04585); assay: HIV Integrase Substrate Cleavage (endonucleolytic processing and joining of the 3' end of HIV long terminal repeat terminus; coupled reaction); assay type: biochemical; conditions: inhibitor at various concentrations in the range of 1 to 100 μM
T1 construct: HIV-1 integrase
Experimental: HIV Integrase Substrate Cleavage
As assay for endonucleolytic processing and joining of the 3' end of HIV long terminal repeat terminus by HIV-1 integrase was conducted according to Hazuda, et al., Nud. Acids Res., 22, 1121 (1994), herein incorporated by reference for these purposes. To assay inhibition of the coupled reaction, the assay was conducted with inhibitor having various concentrations in the range of 1 to 100 μM.

HIV integrase = molecular target: T2, HIV integrase (Human immunodeficiency virus type 1 group M subtype B, UniProt P04585); assay: Strand Transfer Assay for HIV Integrase (microtiter assay, processed donor (HIV) DNA to nonspecific, nicked target DNA); assay type: biochemical; conditions: inhibitor at various concentrations in the range of 1 to 100 μM
T2 construct: HIV integrase
Experimental: Strand Transfer Assay for HIV Integrase
A microtiter assay for strand transfer of processed donor (HIV) DNA to nonspecific, nicked target DNA was conducted according to Wolfe, et al., J. Virol., 70, 1424 (1996), herein incorporated by reference for these purposes. To assay inhibition of such strand transfer by HIV integrase, the reaction was conducted with inhibitor having various concentrations in the range of 1 to 100 μM.

Row | SMILES | IC50 (HIV-1 integrase) [µM] | IC50 (HIV integrase) [µM]
1 | CCCC(O)CCCCCCCc1cc(O)cc(O)c1 (centres unmarked) [Compound D] | 93 | > 100
2 | CCCC(O)CCCCCCCc1cc(O)cc(O)c1C(=O)OC(CCC)CCCCCCCc1cc(O)cc(O)c1 (centres unmarked) [Compound B] | 6.1 | 17
3 | CCCC(CCCCCCCc1cc(O)cc(O)c1C(=O)OC(CCC)CCCCCCCc1cc(O)cc(O)c1)OC(C)=O (centres unmarked) [Compound A] | 3.2 | 32
4 | CCC/C=C/CCCCCCc1cc(O)cc(O)c1C(=O)OC(CCC)CCCCCCCc1cc(O)cc(O)c1 (centres unmarked) [Compound C] | 3.5 | > 88
